The text below walks through data of ChEMBL document CHEMBL4033730, “Thiosemicarbazones as inhibitors of tyrosinase enzyme” (Bioorg Med Chem Lett, 2017).

In data set [1] the target is T1, Mushroom tyrosinase (Agaricus bisporus, UniProt O42713+Q00024+C7FF04+C7FF05). The data set is described as follows: Competitive inhibition of Agaricus bisporus tyrosinase assessed as reduction in diphenolase activity by measuring L-DOPA oxidation at 1.6 mM after 30 mins by Lineweaver-Burk plot.
Data set [2] deals with T2, Mushroom tyrosinase (Agaricus bisporus) (UniProt O42713+Q00024+C7FF04+C7FF05). Put plainly: Inhibition of Agaricus bisporus tyrosinase assessed as reduction in diphenolase activity by measuring L-DOPA oxidation at 1.6 mM after 0 to 70 mins by UV-visible specroscopy.
For data set [3], the target named is T1, Mushroom tyrosinase. The data set is described as follows: Inhibition of Agaricus bisporus tyrosinase assessed as reduction in diphenolase activity by measuring L-DOPA oxidation after 30 mins.
Data set [4] addresses T2, Mushroom tyrosinase (Agaricus bisporus). The data set is described as follows: Inhibition of Agaricus bisporus tyrosinase assessed as reduction in diphenolase activity by measuring L-DOPA oxidation at 1.33 mM after 30 mins.
Data set [5] has the same target. Put plainly: Inhibition of Agaricus bisporus tyrosinase assessed as reduction in diphenolase activity by measuring L-DOPA oxidation at 0.15 mM after 30 mins.
For data set [6] the target is unchanged. Put plainly: Inhibition of Agaricus bisporus tyrosinase assessed as reduction in diphenolase activity by measuring L-DOPA oxidation at 2.67 mM after 30 mins.
Data set [7] has the same target. The data set is described as follows: Inhibition of Agaricus bisporus tyrosinase assessed as reduction in diphenolase activity by measuring L-DOPA oxidation at 2.22 mM after 30 mins.
For data set [8] the target is unchanged. Put plainly: Inhibition of Agaricus bisporus tyrosinase assessed as reduction in diphenolase activity by measuring L-DOPA oxidation at 1.78 mM after 30 mins.
Data set [9] shares this target. The data set is described as follows: Inhibition of Agaricus bisporus tyrosinase assessed as reduction in diphenolase activity by measuring L-DOPA oxidation at 0.44 mM after 30 mins.
For data set [10] the target is unchanged. Put plainly: Competitive inhibition of Agaricus bisporus tyrosinase assessed as reduction in diphenolase activity by measuring L-DOPA oxidation at 1.6 mM after 30 mins UV-visible specroscopy.
Data set [11] shares this target. The data set is described as follows: Inhibition of Agaricus bisporus tyrosinase assessed as reduction in diphenolase activity by measuring L-DOPA oxidation at 0.89 mM after 30 mins.
Data set [12] has the same target. Put plainly: Inhibition of Agaricus bisporus tyrosinase assessed as reduction in diphenolase activity by measuring L-DOPA oxidation at 0.29 mM after 30 mins.
Data set [13] has as its target T1, Mushroom tyrosinase. The data set is described as follows: Uncompetitive inhibition of Agaricus bisporus tyrosinase assessed as reduction in diphenolase activity by measuring L-DOPA oxidation at 1.6 mM after 30 mins by Lineweaver-Burk plot.
The test system of data set [14] is NC(=S)N/N=C/c1ccc(O)cc1. The data set is described as follows: (§1) Inhibition of Agaricus bisporus tyrosinase assessed as reduction in diphenolase activity by measuring apparent Km for L-DOPA oxidation at 1.6 mM after 30 mins by Lineweaver-Burk plot.
Data set [15] concerns NC(=S)N/N=C/c1ccc(Br)cc1. The data set is described as §1.
Data set [16] relates to COc1cc(/C=N/NC(N)=S)ccc1O. Described as §1.
Data set [17] deals with COc1ccc(/C=N/NC(N)=S)cc1. Described as §1.
In data set [18] the test system is CCOc1ccc(/C=N/NC(N)=S)cc1. The data set is described as §1.
In data set [19] the test system is NC(=S)N/N=C/c1ccccc1. The data set is described as §1.
Data set [20] has as its system NC(=S)N/N=C/c1ccc(NC(=S)N/N=C/c2ccccn2)cc1. The description is as §1.
Data set [21] has as its system NC(=S)N/N=C/c1ccc(Cl)cc1. The data set is described as §1.
In data set [22] the test system is NC(=S)N/N=C/c1ccc(O)cc1. Put plainly: (§2) Inhibition of Agaricus bisporus tyrosinase assessed as reduction in diphenolase activity by measuring Vmax for L-DOPA oxidation at 1.6 mM after 30 mins by Lineweaver-Burk plot.
The test system of data set [23] is NC(=S)N/N=C/c1ccc(Br)cc1. The description is as §2.
In data set [24] the test system is COc1cc(/C=N/NC(N)=S)ccc1O. Described as §2.
Data set [25] deals with COc1ccc(/C=N/NC(N)=S)cc1. The description is as §2.
The subject of data set [26] is CCOc1ccc(/C=N/NC(N)=S)cc1. The description is as §2.
The test system of data set [27] is NC(=S)N/N=C/c1ccccc1. The data set is described as §2.
Data set [28] has as its system NC(=S)N/N=C/c1ccc(NC(=S)N/N=C/c2ccccn2)cc1. The description is as §2.
For data set [29], the system named is NC(=S)N/N=C/c1ccc(Cl)cc1. The description is as §2.
For data set [30], the target named is T1, Mushroom tyrosinase. The data set is described as follows: […] inhibition of Agaricus bisporus tyrosinase assessed as reduction in diphenolase activity by measuring L-DOPA oxidation at 1.6 mM after 30 mins by Lineweaver-Burk plot.

Calls of active or inactive are those of the source. The rule behind the calls is not given here.

Sequence of Mushroom tyrosinase (Agaricus bisporus) (from UniProt O42713+Q00024+C7FF04+C7FF05) (C7FF05 whole entry, looked up): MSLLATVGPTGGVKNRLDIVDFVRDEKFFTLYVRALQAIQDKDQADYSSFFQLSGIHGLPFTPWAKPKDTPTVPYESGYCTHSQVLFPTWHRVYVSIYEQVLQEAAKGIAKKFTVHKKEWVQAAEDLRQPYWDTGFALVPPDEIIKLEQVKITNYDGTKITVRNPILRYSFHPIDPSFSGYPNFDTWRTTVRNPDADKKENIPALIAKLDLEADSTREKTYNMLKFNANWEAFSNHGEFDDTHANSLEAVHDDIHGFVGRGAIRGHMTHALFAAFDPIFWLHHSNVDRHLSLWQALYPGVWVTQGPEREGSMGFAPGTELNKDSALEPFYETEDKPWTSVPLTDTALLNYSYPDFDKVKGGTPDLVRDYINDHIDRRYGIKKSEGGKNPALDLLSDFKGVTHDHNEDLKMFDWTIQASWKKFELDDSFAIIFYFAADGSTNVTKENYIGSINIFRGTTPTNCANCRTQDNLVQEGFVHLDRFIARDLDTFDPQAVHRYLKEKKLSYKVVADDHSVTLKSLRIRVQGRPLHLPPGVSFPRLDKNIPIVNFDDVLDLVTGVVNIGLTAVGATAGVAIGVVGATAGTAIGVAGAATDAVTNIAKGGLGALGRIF
Sequence of Mushroom tyrosinase (Agaricus bisporus) (from UniProt O42713+Q00024+C7FF04+C7FF05) (C7FF04 whole entry, looked up): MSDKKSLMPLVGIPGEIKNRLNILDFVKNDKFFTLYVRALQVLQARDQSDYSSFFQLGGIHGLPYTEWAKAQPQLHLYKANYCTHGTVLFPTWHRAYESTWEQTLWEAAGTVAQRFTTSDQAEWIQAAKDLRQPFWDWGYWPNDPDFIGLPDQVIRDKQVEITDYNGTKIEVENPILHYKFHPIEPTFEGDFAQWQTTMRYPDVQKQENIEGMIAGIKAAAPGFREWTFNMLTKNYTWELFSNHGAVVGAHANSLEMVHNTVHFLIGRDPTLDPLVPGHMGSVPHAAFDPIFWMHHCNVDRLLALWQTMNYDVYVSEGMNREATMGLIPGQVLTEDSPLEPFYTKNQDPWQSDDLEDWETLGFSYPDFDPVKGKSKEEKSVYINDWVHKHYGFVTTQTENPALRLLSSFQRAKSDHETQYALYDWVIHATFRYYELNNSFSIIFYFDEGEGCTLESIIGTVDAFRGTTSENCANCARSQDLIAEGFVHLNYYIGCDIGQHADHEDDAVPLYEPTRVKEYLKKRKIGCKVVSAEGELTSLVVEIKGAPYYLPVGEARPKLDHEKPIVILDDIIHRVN
Sequence of Mushroom tyrosinase (Agaricus bisporus) (from UniProt O42713+Q00024+C7FF04+C7FF05) (Q00024 whole entry, looked up): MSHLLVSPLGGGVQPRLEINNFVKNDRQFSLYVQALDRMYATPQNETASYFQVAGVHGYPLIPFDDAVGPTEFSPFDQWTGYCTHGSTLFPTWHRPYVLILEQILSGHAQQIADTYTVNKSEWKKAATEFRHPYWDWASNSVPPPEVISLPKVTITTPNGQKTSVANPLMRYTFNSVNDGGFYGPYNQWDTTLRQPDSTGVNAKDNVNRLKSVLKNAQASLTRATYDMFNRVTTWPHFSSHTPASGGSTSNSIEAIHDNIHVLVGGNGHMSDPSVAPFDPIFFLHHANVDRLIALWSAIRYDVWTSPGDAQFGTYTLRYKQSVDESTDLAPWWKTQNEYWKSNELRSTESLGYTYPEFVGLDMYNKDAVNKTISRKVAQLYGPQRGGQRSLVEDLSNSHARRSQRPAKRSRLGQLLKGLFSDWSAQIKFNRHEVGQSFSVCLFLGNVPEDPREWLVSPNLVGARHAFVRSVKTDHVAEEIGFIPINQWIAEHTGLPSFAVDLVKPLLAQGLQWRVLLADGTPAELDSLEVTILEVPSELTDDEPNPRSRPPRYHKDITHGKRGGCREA
Sequence of Mushroom tyrosinase (Agaricus bisporus) (from UniProt O42713+Q00024+C7FF04+C7FF05) (O42713 whole entry, looked up): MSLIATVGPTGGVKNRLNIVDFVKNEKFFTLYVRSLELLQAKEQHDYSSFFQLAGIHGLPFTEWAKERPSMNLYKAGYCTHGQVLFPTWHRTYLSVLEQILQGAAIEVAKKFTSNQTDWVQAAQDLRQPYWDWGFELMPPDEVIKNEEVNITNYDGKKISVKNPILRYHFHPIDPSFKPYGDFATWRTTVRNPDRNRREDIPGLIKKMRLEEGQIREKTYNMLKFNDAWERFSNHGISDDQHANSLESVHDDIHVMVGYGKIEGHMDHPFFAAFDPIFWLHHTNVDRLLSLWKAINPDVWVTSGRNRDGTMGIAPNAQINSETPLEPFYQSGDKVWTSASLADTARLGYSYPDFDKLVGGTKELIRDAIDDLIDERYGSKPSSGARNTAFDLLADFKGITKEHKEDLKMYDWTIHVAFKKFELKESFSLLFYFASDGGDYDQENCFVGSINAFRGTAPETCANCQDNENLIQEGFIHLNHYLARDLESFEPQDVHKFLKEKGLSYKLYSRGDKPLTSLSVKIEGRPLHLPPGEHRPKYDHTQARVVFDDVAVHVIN

For orientation: Ki means a dissociation constant, usually derived from enzyme kinetics or from competition with a known ligand. The term inhibition denotes the relative decrease from the control value, in per cent. The term IC50 denotes the concentration that inhibits the measured activity by half. On to `COc1ccc(/C=N/NC(N)=S)cc1`, for which the Ki in [1] is 50 µM. Further, the inhibition result in data set [2] is “Active”. For the same molecule, the IC50 in data set [3] was 440 µM.

For `COc1cc(/C=N/NC(N)=S)ccc1O`, in data set [1], the Ki came out at 60 µM. In addition, the inhibition was found to be 89.2% in [4]; 24% in data set [5]; 93.8% in [6]; 94.6% in data set [7]; 92.8% in [8]; 59.3% in [9]. In addition, the inhibition worked out at 79.2% in data set [11] and 45.7% in data set [12]. The inhibition result in data set [10] and in [2] was “Active” each time. In addition, the IC50 in [3] was found to be 350 µM.

As to `NC(=S)N/N=C/c1ccc(Br)cc1`, the inhibition entry in [2] was “Active”. Also, the Ki in data set [13] was determined as 600 µM. Also, the IC50 in data set [3] was 1420 µM.

As a reminder, the Km is the substrate concentration at which the rate is half of its maximum. By Vmax is commonly meant the rate approached at saturating substrate. Turning to “Mushroom tyrosinase (Agaricus bisporus) (from UniProt O42713+Q00024+C7FF04+C7FF05)”, the Michaelis constant (Km) in [14] is 0.7 mM; in [15], 0.5 mM; in [16], 22.4 mM; in data set [17], 26.3 mM; in [18], 21.7 mM; in data set [19], 0.8 mM. The values for the Km in [20] and in [21] were 8.3 mM and 1.9 mM, respectively. The maximum rate (Vmax) in data set [22] was 9.5 mM/min; in data set [23] it was 16.6 mM/min; in data set [24] it was 48.1 mM/min; in [25], 34.8 mM/min; in [26], 38.4 mM/min; in data set [27], 18.9 mM/min. Further, the maximal velocity (Vmax) was determined as 27.1 mM/min in data set [28] and 39.7 mM/min in data set [29].

On to `NC(=S)N/N=C/c1ccc(Cl)cc1`, for which the Ki in [1] came out at 1300 µM. In data set [3], the IC50 was found to be 840 µM.

For the molecule `NC(=S)N/N=C/c1ccc(O)cc1`, the inhibition entry in [2] was “Active”.

Turning to `NC(=S)N/N=C/c1ccc(NC(=S)N/N=C/c2ccccn2)cc1`, in data set [1], the Ki is 200 µM. Also, in data set [2], the inhibition entry is “Active”. In addition, the 50% inhibitory concentration (IC50) in data set [3] turned out to be 1190 µM.

For `CCOc1ccc(/C=N/NC(N)=S)cc1`, the Ki in data set [1] turned out to be 60 µM. In addition, the inhibition result in data set [2] was “Active”. For the same molecule, the IC50 in [3] was determined as 360 µM.

Consider `NC(=S)N/N=C/c1ccccc1` [PHENYLTHIOSEMICARBAZONE], for which the Ki in [30] was 4500 µM. The inhibition entry in [2] was “Active”. Also, in [3], the 50% inhibitory concentration (IC50) is 820 µM.
